Experimental data: patent publication US9757375B2, “Compounds that inhibit human DNA ligases and methods of treating cancer” (University of Maryland, Baltimore, priority 2007, dated 2017)
Read-outs that look alike come from different tables or passages of the source. Marks after values point to notes of the source that are not given here.

Tests used:
MCF10A cells [1] = test: Screen for potentiation of DNA damaging agents (MMS, camptothecin, cis-platinum, 3 aminobenzamide, ionizing radiation); assay type: cell-based, human
From the text: The 192 human DNA ligase inhibitors were screened in parallel for effects on proliferation and the ability to potentiate the effects of several DNA damaging agents using two cell human lines, a colon cancer line HCT116 and a normal breast epithelial cell line MCF10A using a Biomek FX Laboratory Automation Workstation as described (23). The DNA damaging agents used, methyl methanesulfonate (MMS), camptothecin, cis-platinum, 3 aminobenzamide and ionizing radiation, are representatives of classes of agents used to treat cancer. Briefly, HCT116 and MCF10A cells were plated in 96 well plates such that the cultures were about 80% confluent after 5 days incubation. Compounds were added to the cultures at either 15 μM or 50 μM 1 day after plating. After incubation for 3 days, cell lysed in a solution containing 1.2% Igepal CA-630 and SYBR green that stains DNA (1:1000, Molecular Probes, Eugene, Oreg.). Subsequently, fluorescence was measured per well. The studies with DNA damaging agents were performed as follows. […] Cultures were incubated for 3 days and then treated as above.

HCT116 cells [2] = test: as above; assay type: cell-based, human
From the text: (§1) The 192 human DNA ligase inhibitors were screened in parallel for effects on proliferation and the ability to potentiate the effects of several DNA damaging agents using two cell human lines, a colon cancer line HCT116 and a normal breast epithelial cell line MCF10A using a Biomek FX Laboratory Automation Workstation as described (23). The DNA damaging agents used, methyl methanesulfonate (MMS), camptothecin, cis-platinum, 3 aminobenzamide and ionizing radiation, are representatives of classes of agents used to treat cancer. Briefly, HCT116 and MCF10A cells were plated in 96 well plates such that the cultures were about 80% confluent after 5 days incubation. Compounds were added to the cultures at either 15 μM or 50 μM 1 day after plating. After incubation for 3 days, cell lysed in a solution containing 1.2% Igepal CA-630 and SYBR green that stains DNA (1:1000, Molecular Probes, Eugene, Oreg.). Subsequently, fluorescence was measured per well. The studies with DNA damaging agents were performed as follows. […] For ionizing radiation, cells were pre-incubated with the compounds at 50 μM for 1 hour prior to exposure to 2 gray of ionizing radiation. Cultures were incubated for 3 days and then treated as above.

HCT116 and MCF10A cells = test: Screen for potentiation of DNA damaging agents, cell line not stated with the result; assay type: cell-based, human; settings: 50 μM, 2 gray of ionizing radiation
From the text: as §1

hLigI = target: T1, hLigI (Homo sapiens, UniProt P18858); test: High-throughput fluorescence-based DNA joining (ligation) assay; assay type: biochemical
T1 construct: made in house
Experimental: Candidate ligase inhibitors identified by CADD were assayed for their ability to inhibit hLigI and T4 DNA ligase using a high-throughput, fluorescence energy transfer-based DNA joining assay (22). Duplicate reactions (30 μL) containing 10 pmol of nicked DNA substrate and either 0.25 pmol of hLigI or 10 units of T4 DNA ligase were incubated in the presence or absence of 100 μmol/L of the putative inhibitor. DNA binding by the candidate DNA ligase inhibitors was measured by displacement of ethidium bromide from DNA as previously described (30).
(§2) The method for screening compounds comprises testing the compound for the ability to inhibit human DNA ligases I, III and IV with a high throughput fluorescence-based ligation assay. In this assay, phosphodiester bond formation covalently links together two oligonucleotides, one of which is a fluorescent donor AF488 that is 11 nucleotides from the 3′ terminus and the other contains a fluorescence acceptor and quencher, BHQ1 that is 15 nucleotides from the 5′ terminus. When these oligonucleotides are present in separate duplexes and in the same nicked or intact duplex, there is no significant quenching of fluorescence because the donor and acceptor are too far apart. As single-strands neither the AF488 oligonucleotide nor the BHQ1 oligonucleotides have significant secondary structure. However, when these oligonucleotides are ligated together, the resultant single strand forms a stable hairpin structure, in which the AF488 and BHQ1 groups are very close together, resulting in efficient intra-molecular quenching of fluorescence. Thus, in the DNA joining assay, the DNA substrate is denatured after incubation with the DNA ligase and then renatured in the presence of a 20-fold excess of an oligonucleotide that is identical to the ligated strand containing the fluorescent door and acceptor except that it lacks these modifications. Using this assay, DNA joining, which results in reduced fluorescence at 518 nm, can be measured rapidly, quantitatively and with high-throughput using a fluorescence plate reader.
(§3) Applicants developed a novel high throughput fluorescence-based ligation assay by modifying the sequence of the oligos to optimize hairpin formation by the single strand ligated product of the high throughput fluorescence-based ligation assay of Chen et al (22). […] Compound stock solutions, which were 10 mM in 0.5% DMSO, were diluted in 0.5% DMSO. Human DNA ligases I and III were assayed with a nicked DNA substrate whereas as the substrate for human DNA ligase IV was two oligonucleotide duplexes with short complementary single strand ends.

human DNA ligase IV = human DNA ligase IV (Homo sapiens, UniProt P49917); test: as above; assay type: biochemical
From the text: as §2, §3

human DNA ligase III = target: T2, human DNA ligase III (Homo sapiens, UniProt P49916); test: as above; assay type: biochemical
T2 sequence (P49916 1-862 isoform P49916-4): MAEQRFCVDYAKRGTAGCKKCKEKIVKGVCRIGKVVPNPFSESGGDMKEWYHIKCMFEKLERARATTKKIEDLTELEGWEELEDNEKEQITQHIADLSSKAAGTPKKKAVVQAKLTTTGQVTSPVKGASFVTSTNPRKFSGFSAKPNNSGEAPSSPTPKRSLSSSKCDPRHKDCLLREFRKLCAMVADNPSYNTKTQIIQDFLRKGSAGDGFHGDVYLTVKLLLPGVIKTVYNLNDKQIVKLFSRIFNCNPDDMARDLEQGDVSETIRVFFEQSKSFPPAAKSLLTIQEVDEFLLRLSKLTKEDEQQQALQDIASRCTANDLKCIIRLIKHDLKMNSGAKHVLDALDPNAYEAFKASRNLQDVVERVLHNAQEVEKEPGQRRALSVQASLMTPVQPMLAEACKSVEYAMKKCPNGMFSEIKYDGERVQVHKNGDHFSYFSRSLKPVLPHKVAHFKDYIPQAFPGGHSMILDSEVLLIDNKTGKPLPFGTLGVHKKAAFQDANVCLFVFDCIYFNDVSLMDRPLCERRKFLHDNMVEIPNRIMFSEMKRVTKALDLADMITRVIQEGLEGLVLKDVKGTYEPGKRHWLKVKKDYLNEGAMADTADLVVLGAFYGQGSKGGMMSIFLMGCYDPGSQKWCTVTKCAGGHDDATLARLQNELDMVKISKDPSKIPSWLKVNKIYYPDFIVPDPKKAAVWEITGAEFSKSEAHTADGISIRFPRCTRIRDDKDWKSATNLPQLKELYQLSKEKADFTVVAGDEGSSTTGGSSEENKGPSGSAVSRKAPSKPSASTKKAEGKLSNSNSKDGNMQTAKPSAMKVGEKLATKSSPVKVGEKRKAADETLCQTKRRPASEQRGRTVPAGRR
From the text: as §2, §3

HCT116 cells [3] = test: MTT cell growth assay; assay type: cell-based, human; settings: cell growth, compound alone, read-out: IC50 (μM) HCT116
Experimental: (§4) The activity of hits from the initial screen was further validated using the MTT assay. Briefly, MCF10A and HCT116 cells were seeded in 96 well plates at 300 and 1200 cells per well, respectively, and allowed to adhere overnight. The following day, serial dilutions of compounds in media were added to the cells in a final volume 200 μl. After incubation for 5 days, MTT reagent (3-(4,5-dimthylthiazol-2-yl)-2,5-diphenyltatrazolium) was added and incubation was continued for 4 h. Formazan crystals generated by reduction of the MTT reagent in mitochondria were solubilized with isopropanol prior to the measurement of absorbance at 560 nm wavelength in a plate reader.
After incubation for 5 days, cell growth was measured by the MTT assay (16).

MCF10A cells [4] = test: MTT cell growth assay; assay type: cell-based, human; settings: Homo sapiens, MCF-10A; sections 'high concentrations (~50 μM)' and 'active in vitro that decreased cell growth'; same figures given in μM elsewhere in Table 6; read-out: IC50 MCF10A (head without unit)
Experimental: as §4
To extend the results of the […] cell culture screening assay, a subset of compounds were tested in larger cultures. Different concentrations of Compounds 67 and 151 were added to asynchronous subconfluent populations of HCT116 and MCF10A cells. Asynchronous subconfluent populations of HCT116 and MCF10A cells were pre-treated with different concentrations of compound 64 prior to the addition of 3 aminobenzamide (2 mM) MMS (100 μM) or cis-platinum (1 μM). After incubation for 5 days, cell growth was measured by the MTT assay (16).

[5] = compound alone vs combination with 3-AB (2 mM), 1 = no sensitization

Chain of human DNA ligase IV (P49917 whole entry): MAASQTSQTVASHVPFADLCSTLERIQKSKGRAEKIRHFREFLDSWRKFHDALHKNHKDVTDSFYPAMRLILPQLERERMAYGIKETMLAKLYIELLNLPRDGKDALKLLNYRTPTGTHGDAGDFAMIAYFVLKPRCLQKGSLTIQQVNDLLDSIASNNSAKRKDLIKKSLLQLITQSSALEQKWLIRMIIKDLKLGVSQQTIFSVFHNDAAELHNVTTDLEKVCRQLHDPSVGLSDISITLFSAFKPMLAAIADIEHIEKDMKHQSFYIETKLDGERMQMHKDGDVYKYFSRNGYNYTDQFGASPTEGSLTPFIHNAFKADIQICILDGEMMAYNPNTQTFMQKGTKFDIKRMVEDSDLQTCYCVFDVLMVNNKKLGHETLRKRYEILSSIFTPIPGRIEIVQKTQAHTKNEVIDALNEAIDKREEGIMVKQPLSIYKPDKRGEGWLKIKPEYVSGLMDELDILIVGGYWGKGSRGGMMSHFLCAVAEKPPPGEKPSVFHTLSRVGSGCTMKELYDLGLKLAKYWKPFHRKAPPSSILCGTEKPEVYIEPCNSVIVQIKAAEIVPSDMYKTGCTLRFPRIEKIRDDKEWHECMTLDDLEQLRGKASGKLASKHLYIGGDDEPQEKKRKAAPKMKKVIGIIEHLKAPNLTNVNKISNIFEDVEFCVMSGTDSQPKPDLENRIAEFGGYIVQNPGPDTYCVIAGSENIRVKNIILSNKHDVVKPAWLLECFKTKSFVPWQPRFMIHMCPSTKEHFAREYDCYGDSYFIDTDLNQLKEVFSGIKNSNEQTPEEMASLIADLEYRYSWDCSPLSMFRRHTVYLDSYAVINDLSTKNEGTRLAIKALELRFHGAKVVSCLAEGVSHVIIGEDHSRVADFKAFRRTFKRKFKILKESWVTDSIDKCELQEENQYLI
Chain of human DNA ligase IV (Q13426 whole entry partner): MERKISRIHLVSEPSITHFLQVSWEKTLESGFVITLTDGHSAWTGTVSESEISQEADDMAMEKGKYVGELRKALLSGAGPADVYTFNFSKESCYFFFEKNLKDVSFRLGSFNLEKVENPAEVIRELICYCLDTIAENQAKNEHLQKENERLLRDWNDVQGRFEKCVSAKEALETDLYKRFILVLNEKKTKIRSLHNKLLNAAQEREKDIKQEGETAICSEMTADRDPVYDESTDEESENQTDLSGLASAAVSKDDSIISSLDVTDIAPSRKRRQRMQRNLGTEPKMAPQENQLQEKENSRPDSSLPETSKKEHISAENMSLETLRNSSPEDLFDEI
T1 sequence (P18858 whole entry): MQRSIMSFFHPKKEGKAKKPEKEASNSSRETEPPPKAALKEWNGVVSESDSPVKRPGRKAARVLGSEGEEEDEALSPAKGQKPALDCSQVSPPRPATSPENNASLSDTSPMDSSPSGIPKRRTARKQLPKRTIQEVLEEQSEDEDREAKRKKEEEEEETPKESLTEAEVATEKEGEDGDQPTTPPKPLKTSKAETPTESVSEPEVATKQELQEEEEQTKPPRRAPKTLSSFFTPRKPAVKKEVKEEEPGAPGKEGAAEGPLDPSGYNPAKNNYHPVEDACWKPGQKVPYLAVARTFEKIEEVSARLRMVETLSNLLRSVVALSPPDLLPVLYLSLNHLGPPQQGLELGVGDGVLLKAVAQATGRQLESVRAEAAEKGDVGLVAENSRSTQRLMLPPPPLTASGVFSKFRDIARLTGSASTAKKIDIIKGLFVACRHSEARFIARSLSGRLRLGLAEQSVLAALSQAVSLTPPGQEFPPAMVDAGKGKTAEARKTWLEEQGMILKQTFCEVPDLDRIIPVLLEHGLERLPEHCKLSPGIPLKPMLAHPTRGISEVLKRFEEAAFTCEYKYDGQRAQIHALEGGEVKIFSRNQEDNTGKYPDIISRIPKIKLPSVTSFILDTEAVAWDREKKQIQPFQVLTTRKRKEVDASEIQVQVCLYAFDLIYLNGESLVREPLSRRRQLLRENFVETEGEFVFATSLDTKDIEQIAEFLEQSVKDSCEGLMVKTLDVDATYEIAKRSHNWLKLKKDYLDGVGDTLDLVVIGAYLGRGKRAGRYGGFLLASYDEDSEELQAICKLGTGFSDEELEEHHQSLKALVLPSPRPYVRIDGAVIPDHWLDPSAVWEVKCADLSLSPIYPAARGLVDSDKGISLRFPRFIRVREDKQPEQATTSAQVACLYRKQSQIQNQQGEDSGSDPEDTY

Structure (SMILES) | Radiosensitizers: IC50 ratios MCF10A (MCF10A cells [1]; ionizing radiation) | Radiosensitizers: IC50 ratios HCT116 (HCT116 cells [2]; ionizing radiation) | radiosensitizer activity (HCT116 and MCF10A cells) | % of inhibition @ 100 μM (Helen's data) hLigI (hLigI; 100 μM) | % of inhibition @ 100 μM (Helen's data) hLigIV (human DNA ligase IV; 100 μM) | % of inhibition @ 100 μM (Helen's data) hLigIII (human DNA ligase III; 100 μM) | IC50 (HCT116 cells [3]) [µM] | IC50 (MCF10A cells [4]) [µM] | IC50 ratios of non- and 3-AB treated cells MCF10A (MCF10A cells [1]; [5]) | IC50 ratios of non- and 3-AB treated cells HCT116 (HCT116 cells [2]; [5]) | MMS: Ratios of IC50 HCT116 (HCT116 cells [2]; compound alone vs combination with MMS (100 μM), 1 = no sensitization) | inhibition at 100 µM (hLigI; read-out: % of inhibition @ 100 μM (Helen's data) hLigI) [%] | inhibition at 100 µM (human DNA ligase IV; read-out: % of inhibition @ 100 μM (Helen's data) hLigIV) [%] | inhibition at 100 µM (human DNA ligase III; read-out: % of inhibition @ 100 μM (Helen's data) hLigIII) [%] | IC50 (HCT116 cells [3]; Homo sapiens, HCT-116) [µM]
CCc1ccc(NS(=O)(=O)c2ccc(Cl)s2)cc1 [Compound 105] | 1 | 1.3 | act as radiosensitizers | NI (NI- no inhibition) | NI (NI- no inhibition) | NI (NI- no inhibition) | ~50 | – | – | – | – | – | – | – | –
O=C1NC(=S)NC(=O)C1=NNc1cccc(C(=O)O)c1 [Compound 198] | – | – | – | – | – | – | – | > 50 | 2** | 1 | 2** | < 20 | < 20 | < 20 | > 50
